Where only a bound is given, the exact number is not on record here.

Assay [1] has as its system HepG2. The assay can be described thus: Cytotoxicity against human HepG2 cells. Format: functional, cell-based.
Assay [2] relates to KB. In words: Cytotoxicity against human KB cells. Type of assay: functional, cell-based.

For the compound `C=C(C)[C@@H]1CC[C@]2(C(=O)O)CC[C@]3(C)[C@H](CC[C@@H]4[C@@]5(C)CC[C@@H](O)[C@@](C)(C(=O)O)[C@@H]5CC[C@]43C)[C@@H]12`, the results for the IC50 in assay [1] and in assay [2] were 223 µM and 110 µM, respectively.
For `C#CCOC(=O)[C@]12CC[C@@H](C(=C)C)[C@@H]1[C@H]1CC[C@@H]3[C@@]4(C)CC[C@H](O)C(C)(C)[C@@H]4CC[C@@]3(C)[C@]1(C)CC2`, in that order: 114 µM and over 259 µM.
For `C=C(C)[C@@H]1CC[C@]2(C(=O)O)CC[C@]3(C)[C@H](CC[C@@H]4[C@@]5(C)CCC(=O)[C@H](C)[C@@H]5CC[C@]43C)[C@@H]12`, in that order: 11.2 µM and 7.7 µM.
In the case of `C#CCOC(=O)[C@]12CC[C@@H](C(=C)C)[C@@H]1[C@H]1CC[C@@H]3[C@@]4(C)CC[C@H](OC(=O)CCC(=O)O)C(C)(C)[C@@H]4CC[C@@]3(C)[C@]1(C)CC2`, the IC50 (in general, the concentration at which inhibition is half-maximal) in assay [1] is 49.9 µM; in assay [2], 22.2 µM.
Taken in the same sequence, the figures for `C#CCOC(=O)[C@]12CC[C@@H](C(=C)C)[C@@H]1[C@H]1CC[C@@H]3[C@@]4(C)CC[C@H](OC(=O)CCCC(=O)O)C(C)(C)[C@@H]4CC[C@@]3(C)[C@]1(C)CC2` were 19.9 µM and 28.7 µM.
Taken in the same sequence, the figures for `C#CCOC(=O)[C@]12CC[C@@H](C(=C)C)[C@@H]1[C@H]1CC[C@@H]3[C@@]4(C)CC[C@H](OC(=O)CC(C)CC(=O)O)C(C)(C)[C@@H]4CC[C@@]3(C)[C@]1(C)CC2` (stereo partly specified) were 129 µM and 12.5 µM.
For `C=C(C)[C@@H]1CC[C@]2(C(=O)OCc3cn([C@H]4C[C@H](n5cc(C)c(=O)[nH]c5=O)O[C@@H]4CO)nn3)CC[C@]3(C)[C@H](CC[C@@H]4[C@@]5(C)CC[C@H](O)C(C)(C)[C@@H]5CC[C@]43C)[C@@H]12`, in that order: 7 µM and 5.9 µM.
Consider `C=C(C)[C@@H]1CC[C@]2(C(=O)OCc3cn([C@H]4C[C@H](n5cc(C)c(=O)[nH]c5=O)O[C@@H]4CO)nn3)CC[C@]3(C)[C@H](CC[C@@H]4[C@@]5(C)CC[C@H](OC(=O)CCC(=O)O)C(C)(C)[C@@H]5CC[C@]43C)[C@@H]12`, for which the IC50 in assay [1] stood at 20.6 µM; in assay [2], 24.7 µM.
On to `C=C(C)[C@@H]1CC[C@]2(C(=O)OCc3cn([C@H]4C[C@H](n5cc(C)c(=O)[nH]c5=O)O[C@@H]4CO)nn3)CC[C@]3(C)[C@H](CC[C@@H]4[C@@]5(C)CC[C@H](OC(=O)CCCC(=O)O)C(C)(C)[C@@H]5CC[C@]43C)[C@@H]12`, for which the IC50 was 18.3 µM in assay [1] and 20.4 µM in assay [2].
For `C=C(C)[C@@H]1CC[C@]2(C(=O)OCc3cn([C@H]4C[C@H](n5cc(C)c(=O)[nH]c5=O)O[C@@H]4CO)nn3)CC[C@]3(C)[C@H](CC[C@@H]4[C@@]5(C)CC[C@H](OC(=O)CC(C)CC(=O)O)C(C)(C)[C@@H]5CC[C@]43C)[C@@H]12` (stereo partly specified), in that order: 35.2 µM and 111 µM.
As for `Cc1cn([C@H]2C[C@H](n3cc(COC(=O)[C@]45CC[C@@H](C)[C@H](C)[C@H]4C4=CC[C@@H]6[C@@]7(C)CC[C@H](O)C(C)(C)[C@@H]7CC[C@@]6(C)[C@]4(C)CC5)nn3)[C@@H](CO)O2)c(=O)[nH]c1=O`, the results for the IC50 in assay [1] and in assay [2] were 34 µM and 28.5 µM, respectively.
For `Cc1cn([C@H]2C[C@H](n3cc(COC(=O)[C@]45CCC(C)(C)C[C@H]4C4=CC[C@@H]6[C@@]7(C)CC[C@H](O)C(C)(C)[C@@H]7CC[C@@]6(C)[C@]4(C)CC5)nn3)[C@@H](CO)O2)c(=O)[nH]c1=O`, the IC50 in assay [1] stood at 7.4 µM; in assay [2], 6.3 µM.
For `C#CCOC(=O)[C@]12CC[C@@H](C(=C)C)[C@@H]1[C@H]1CC[C@@H]3[C@@]4(C)CCC(=O)[C@H](C)[C@@H]4CC[C@@]3(C)[C@]1(C)CC2`, in that order: over 267 µM and over 267 µM.
With `C#CCOC(=O)[C@]12CC[C@@H](C(=C)C)[C@@H]1[C@H]1CC(=O)[C@@H]3[C@@]4(C)CCC(=O)[C@H](C)[C@@H]4CC[C@@]3(C)[C@]1(C)CC2`, the IC50 in assay [1] amounted to 59.5 µM; in assay [2], 63.9 µM.
For `C=C(C)[C@@H]1CC[C@]2(C(=O)OCc3cn([C@H]4C[C@H](n5cc(C)c(=O)[nH]c5=O)O[C@@H]4CO)nn3)CC[C@]3(C)[C@H](CC[C@@H]4[C@@]5(C)CCC(=O)[C@H](C)[C@@H]5CC[C@]43C)[C@@H]12`, in that order: over 172 µM and over 172 µM.
Taken in the same sequence, the figures for `C=C(C)[C@@H]1CC[C@]2(C(=O)OCc3cn([C@H]4C[C@H](n5cc(C)c(=O)[nH]c5=O)O[C@@H]4CO)nn3)CC[C@]3(C)[C@H](CC(=O)[C@@H]4[C@@]5(C)CCC(=O)[C@H](C)[C@@H]5CC[C@]43C)[C@@H]12` were over 168 µM and over 168 µM.
For `C#CCOC(=O)[C@]12CC[C@@H](C(=C)C)[C@@H]1[C@H]1CC[C@@H]3[C@@]4(C)CC[C@H](O)[C@H](C)[C@@H]4CC[C@@]3(C)[C@]1(C)CC2`, in that order: 133 µM and 40 µM.
For the compound `C#CCOC(=O)[C@]12CC[C@@H](C(=C)C)[C@@H]1[C@H]1CC[C@@H]3[C@@]4(C)CC[C@H](OC(=O)CCC(=O)O)[C@H](C)[C@@H]4CC[C@@]3(C)[C@]1(C)CC2`, the IC50 is 11.4 µM in assay [1] and 10.6 µM in assay [2].
Taken in the same sequence, the figures for `C#CCOC(=O)[C@]12CC[C@@H](C(=C)C)[C@@H]1[C@H]1CC[C@@H]3[C@@]4(C)CC[C@H](OCCCC(=O)O)[C@H](C)[C@@H]4CC[C@@]3(C)[C@]1(C)CC2` were 27.3 µM and 9.9 µM.
Taken in the same sequence, the figures for `C=C(C)[C@@H]1CC[C@]2(C(=O)OCc3cn([C@H]4C[C@H](n5cc(C)c(=O)[nH]c5=O)O[C@@H]4CO)nn3)CC[C@]3(C)[C@H](CC[C@@H]4[C@@]5(C)CC[C@H](OC(=O)CCC(=O)O)[C@H](C)[C@@H]5CC[C@]43C)[C@@H]12` were 7.8 µM and 7.3 µM.
For `C=C(C)[C@@H]1CC[C@]2(C(=O)OCc3cn([C@H]4C[C@H](n5cc(C)c(=O)[nH]c5=O)O[C@@H]4CO)nn3)CC[C@]3(C)[C@H](CC[C@@H]4[C@@]5(C)CC[C@H](OCCCC(=O)O)[C@H](C)[C@@H]5CC[C@]43C)[C@@H]12`, in that order: over 148 µM and over 148 µM.
As to `C=C(C)[C@@H]1CC[C@]2(C(=O)OCc3cn([C@H]4C[C@H](n5cc(C)c(=O)[nH]c5=O)O[C@@H]4CO)nn3)CC[C@]3(C)[C@H](CC[C@@H]4[C@@]5(C)CC[C@H](O)[C@H](C)[C@@H]5CC[C@]43C)[C@@H]12`, the IC50 worked out at 7.3 µM in assay [1] and 34 µM in assay [2].
Taken in the same sequence, the figures for `C=C(C)[C@@H]1CC[C@]2(C(=O)O)CC[C@]3(C)[C@H](C[C@@H](O)[C@@H]4[C@@]5(C)CCC(=O)[C@@H](C)[C@@H]5CC[C@]43C)[C@@H]12` were 58 µM and 46.8 µM.
For `C#CCOC(=O)[C@]12CC[C@@H](C(=C)C)[C@@H]1[C@H]1C[C@@H](O)[C@@H]3[C@@]4(C)CCC(=O)[C@@H](C)[C@@H]4CC[C@@]3(C)[C@]1(C)CC2`, in that order: 39.6 µM and 21.9 µM.
Taken in the same sequence, the figures for `C=C(C)[C@@H]1CC[C@]2(C(=O)OCc3cn([C@H]4C[C@H](n5cc(C)c(=O)[nH]c5=O)O[C@@H]4CO)nn3)CC[C@]3(C)[C@H](C[C@@H](O)[C@@H]4[C@@]5(C)CCC(=O)[C@@H](C)[C@@H]5CC[C@]43C)[C@@H]12` were 8.5 µM and 136 µM.
With `C=C(C)[C@@H]1CC[C@]2(C(=O)O)CC[C@]3(C)[C@H](C[C@@H](O)[C@@H]4[C@@]5(C)CC[C@@H](O)[C@@](C)(C(=O)O)[C@@H]5CC[C@]43C)[C@@H]12`, the concentration for half-maximal inhibition (IC50) in assay [1] and in assay [2] was over 255 µM in each case.
As for `C#CCOC(=O)[C@]12CCC(C)(C)C[C@H]1C1=CC[C@@H]3[C@@]4(C)CC[C@H](O)C(C)(C)[C@@H]4CC[C@@]3(C)[C@]1(C)CC2` [3BETA-HYDROXY-OLEN-12-EN-28-PROPARGYLATE], the half-inhibitory concentration (IC50) in assay [1] was over 259 µM; in assay [2], 38.4 µM.
Taken in the same sequence, the figures for `C#CCOC(=O)[C@]12CC[C@@H](C)[C@H](C)[C@H]1C1=CC[C@@H]3[C@@]4(C)CC[C@H](O)C(C)(C)[C@@H]4CC[C@@]3(C)[C@]1(C)CC2` [3BETA-HYDROXY-URS-12-EN-28-PROPARGYLATE] were 36.5 µM and 38 µM.
Taken in the same sequence, the figures for `C=C(C)[C@@H]1CC[C@]2(C(=O)O)CC[C@]3(C)[C@H](CC[C@@H]4[C@@]5(C)CC[C@H](O)C(C)(C)[C@@H]5CC[C@]43C)[C@@H]12` [BETULINIC ACID] were 23.9 µM and 27.5 µM.
Taken in the same sequence, the figures for `Cc1c2ccncc2c(C)c2c1[nH]c1ccccc12` [ELLIPTECINE] were 1.2 µM and 1.2 µM.
Regarding `CC1(C)CC[C@]2(C(=O)O)CC[C@]3(C)C(=CC[C@@H]4[C@@]5(C)CC[C@H](O)C(C)(C)[C@@H]5CC[C@]43C)[C@@H]2C1` [OLEANOLIC_ACID], the 50% inhibitory concentration (IC50) in assay [1] and in assay [2] was over 280 µM each time.
For the compound `C[C@H]1[C@H](C)CC[C@]2(C(=O)O)CC[C@]3(C)C(=CC[C@@H]4[C@@]5(C)CC[C@H](O)C(C)(C)[C@@H]5CC[C@]43C)[C@H]12` [URSOLIC ACID], the half-maximal inhibitory concentration (IC50) in assay [1] is 42.9 µM; in assay [2], 31.5 µM.
For `Cc1cn([C@H]2C[C@H](N=[N+]=[N-])[C@@H](CO)O2)c(=O)[nH]c1=O` [ZIDOVUDINE], in that order: over 479 µM and over 479 µM.
